Results as given in BindingDB's records for doi:10.1021/jm00024a005 (National Institute of Diabetes and Digestive and Kidney …, 1996).
“And” between values parts separate entries of the source, which are not always exact repeats. Equal values may be shown once.

assay: Ability to inhibit [3H](+)-pentazocine binding to guinea pig brain Sigma receptor type 1

Row | Compound | Ki
1 | CN1CCC2(c3cccc(O)c3)CC(=O)C(=Cc3ccc4ccccc4c3)C1C2 (stereo not given) [5-(3-Hydroxy-phenyl)-2-methyl-8-[1-naphthalen-2-yl-meth-(E)-ylidene]-2-aza-bicyclo[3.3.1]nonan-7-one] | 16.6 nM
2 | CN1CCC2(c3cccc(O)c3)CC(=O)C(=Cc3cccc(I)c3)C1C2 (stereo not given) [5-(3-Hydroxy-phenyl)-8-[1-(3-iodo-phenyl)-meth-(E)-ylidene]-2-methyl-2-aza-bicyclo[3.3.1]nonan-7-one] | 1.62 nM
3 | CN1CCC2(c3cccc(O)c3)CC(=O)C(=Cc3ccc(I)cc3)C1C2 (stereo not given) [5-(3-Hydroxy-phenyl)-8-[1-(4-iodo-phenyl)-meth-(E)-ylidene]-2-methyl-2-aza-bicyclo[3.3.1]nonan-7-one] | 1.71 nM
4 | COc1ccc(C=C2C(=O)CC3(c4cccc(O)c4)CCN(C)C2C3)cc1 (stereo not given) [5-(3-Hydroxy-phenyl)-8-[1-(4-methoxy-phenyl)-meth-(E)-ylidene]-2-methyl-2-aza-bicyclo[3.3.1]nonan-7-one] | 1.9 nM and 7.8 nM
5 | CN1CCC2(c3cccc(O)c3)CC(=O)C(=CC3CC3)C1C2 (stereo not given) [8-[1-Cyclopropyl-meth-(E)-ylidene]-5-(3-hydroxy-phenyl)-2-methyl-2-aza-bicyclo[3.3.1]nonan-7-one] | 62.3 nM
